Experimental data published in US20240417403A1, “CRYSTALLINE FORMS OF QUINAZOLINE DERIVATIVES, PREPARATION, COMPOSITION AND USE THEREOF” (Hoffmann-La Roche Inc., priority 2021, published 2024).
In brackets after ≈: the same amount, converted by molar mass. Like-named read-outs stand apart in the source and are kept apart here. Marks after values point to notes of the source that are not given here.

Tests used:
Type in all cases: physicochemical
[1] = Mechanical stability (XRPD form change after grinding and tableting); details: for XRPD form change after grinding: grinding ~5 min; for XRPD form change after tableting: tableting ~234 Mpa
Experimental: Mechanical stability of the solid forms was evaluated by monitoring the XRPD form change after grinding (˜5 min) and tableting (˜234 Mpa).

Hygroscopicity by DVS = assay: Hygroscopicity by DVS
Experimental: DVS is measured via a SMS (Surface Measurement Systems) DVS Intrinsic. The relative humidity at 25° C. is calibrated against deliquescence point of LiCl, Mg(NO3)2 and KCl.
DVS isotherm plot was collected at 25° C. to investigate the selected solid forms stability as a function of humidity. Compared with amorphous freebase, the hygroscopicity of Freebase Type B, Fumarate Type A, Fumarate Type B and Fumarate Type E was lower under 80% RH/25° C.

[2] = TGA and DSC/mDSC thermal analysis (characterization of forms); details: for TGA weight loss (%, temp.): to 150° C.
Experimental: In salt screening and evaluation and in polymorph study, TGA was performed using a TA Q500, TA Q5000 or Discovery 5500 TGA from TA Instruments. DSC or mDSC was performed using a TA Q200/Q2000 or Discovery 2500 DSC from TA Instruments.

[3] = Slurry competition (interconversion of free base forms at different water activity); details: slurry at 24 ±3° C.
Experimental: Slurry competition experiments were performed to study the interconversion relationship between Freebase Type B and Freebase Type C. […] The inter-conversion relationship among anhydrate Freebase Type B and hydrates Type C/F/G was further investigated under different water activities at RT. the saturated solution of Freebase Type B was obtained via slurry of Freebase Type B at RT overnight in corresponding solvent systems. A mixture of Freebase Type B+C+F+G was added into corresponding saturated solution of Freebase Type B to form suspensions. The suspensions were sampled for XRPD after being stirred for four days at a speed of 750 rpm under RT.

[4] = Equilibrium solubility in pH 4.5 buffer; details: 37° C., stirred 24 hours
Experimental: (§1) An Agilent 1260 HPLC instrument was utilized and detailed chromatographic conditions for purity and solubility analysis were listed in Table 6.
About 5˜10 mg of solids were suspended in pH 4.5 buffer to get a mixture. The suspensions were stirred for 24 hours, followed by centrifugation and filtration to obtain supernatants for HPLC test.

[5] = Form change on storage/exposure at ambient conditions (XRPD); details: storage / exposure at ambient condition (Freebase Type E: 30 m)
Experimental: About 15 mg of Fumarate Type A of compound (I) was suspended in 0.5 mL of H2O in an HPLC vial. The suspension was magnetically stirred at a speed of about 1000 rpm at RT for 9 days. The wet solids were isolated to afford Fumarate Type C of compound (I) (wet sample was analyzed). […] XRPD patterns and data were shown in FIG. 10 and Table 10, respectively.
About 60 mg of Amorphous Freebase of compound (I) was suspended in 2 mL of THF/H2O (1:4, v/v) in an HPLC vial. The suspension was magnetically stirred at a speed of about 1000 rpm at 5° C. for 4 days. The solids were isolated via centrifugation and dried at ambient condition for about 2 hours. After sweeping the solids by N2 for 20 min at 30° C. Freebase Type E of compound (I) was obtained.

[6] = Contact angle against water (wettability)
Experimental: The wettability of the solid forms was evaluated by the contact angle against water.

Crystal habit by PLM = assay: Crystal habit by PLM
Excerpt: The PLM images were captured with Carl Zeiss Axio Scope. A1 microscope at RT.
PLM was used to observe the crystal habit of the particles (amorphous freebase and Fumarate Type A).

[7] = Equilibrium solubility in H2O; details: 37° C., stirred 24 hours
Experimental: as §1
About 5˜10 mg of solids were suspended in H2O to get a mixture. The suspensions were stirred for 24 hours, followed by centrifugation and filtration to obtain supernatants for HPLC test.

[8] = Solid state stability, 40° C./75% RH/open for 1 month (XRPD, HPLC purity); details: for Purity/Initial by HPLC area % / Form Change: 40° C., 75% RH, open; for Form Change: by XRPD; for Purity change by HPLC (chemical stability) compared with amorphous freebase: 40° C./75% RH; for Solid form change by XRPD (physical stability): 40° C./75% RH/open
Experimental: as §1
To evaluate the solid state stability of the selected forms (amorphous freebase, Freebase Type F, Fumarate Type A and Fumarate Type B) samples were stored under 40° C./75% RH/open for 1 month. Stability samples were characterized by XRPD to check any solid form change and by HPLC to check purity change.

[9] = Bulk density, tap density and Carr index (flowability and compressibility); details: for Carr index: (ρ1−ρ0)/ρ1; for Tapped density: tapped 200 times
Experimental: Bulk density was determined by adding appropriate amount (m) of material into a 5 mL graduate cylinder and recording its apparent volume (v0). The bulk density was obtained by dividing the amount of material by its apparent volume of the unsettled material (ρ0=m/v0). For tap density, the cylinder was then tapped for 200 times. The tap density was then calculated by dividing the amount of material by its final tapped volume (ρ1=m/v1). Carr index=(ρ1−ρ0)/ρ1.
(§2) The results of amorphous freebase, Freebase Type F, Fumarate Type B and Fumarate Type E for flowability and compressibility were summarized in Table 30. Generally, powders with smaller Karl index would show better compressibility and flowability. And powders with smaller angle of repose would show better flowability.

[10] = Equilibrium solubility in pH 6.8 buffer; details: 37° C., stirred 24 hours
Experimental: as §1
About 5˜10 mg of solids were suspended in pH 6.8 buffer to get a mixture. The suspensions were stirred for 24 hours, followed by centrifugation and filtration to obtain supernatants for HPLC test.

[11] = Kinetic solubility in FaSSIF; details: for Solubility in FaSSIF: 37° C.
Experimental: as §1
Kinetic solubility of amorphous freebase and Fumarate Type B/E was measured in FaSSIF to evaluate the solubility. […] After centrifugation, supernatants were collected for HPLC tests.

[12] = Angle of repose (flowability)
Excerpt: Form the angle of repose on a fixed base with a retaining lip to retain a layer of powder on the base. Carefully build up a symmetrical cone of powder. Determine the angle of repose by measuring the height (h) and base radius (r) of the cone of powder and calculating the angle of repose a from the following equation α=tan^−1(h/r).
as §2

COc1ccc2ncnc(Nc3ccc(Oc4cc5ncnn5cn4)c(C)c3)c2c1O[C@@H]1CCN(C)CC1(F)F [Freebase Type B, (R)-N-(4-([1,2,4]triazolo[1,5-c]pyrimidin-7-yloxy)-3-methylphenyl)-5-((3,3-difluoro-1-methylpiperidin-4-yl)oxy)-6-methoxyquinazolin-4-amine]
XRPD form change after grinding [1]: No
XRPD form change after tableting [1]: No
Hygroscopicity (in words) (Hygroscopicity by DVS): slightly hygroscopic
Weight change at 80% RH/25° C. by DVS (Hygroscopicity by DVS): 0.2%
DSC endotherm (° C., peak) ([2]; free base forms): 169.4 °C
TGA weight loss (%, temp.) ([2]; free base forms): 3.5 (to 150° C.) %
Critical water activity between Freebase Type B and Type C [3]: 0.8-1
Solubility in pH 4.5 buffer [4]: 0.3 mg/mL

COc1ccc2ncnc(Nc3ccc(Oc4cc5ncnn5cn4)c(C)c3)c2c1O[C@@H]1CCN(C)CC1(F)F [Freebase Type E, (R)-N-(4-([1,2,4]triazolo[1,5-c]pyrimidin-7-yloxy)-3-methylphenyl)-5-((3,3-difluoro-1-methylpiperidin-4-yl)oxy)-6-methoxyquinazolin-4-amine]
Form conversion at ambient conditions [5]: converted to Freebase Type C

COc1ccc2ncnc(Nc3ccc(Oc4cc5ncnn5cn4)c(C)c3)c2c1O[C@@H]1CCN(C)CC1(F)F [Fumarate Type A, (R)-N-(4-([1,2,4]triazolo[1,5-c]pyrimidin-7-yloxy)-3-methylphenyl)-5-((3,3-difluoro-1-methylpiperidin-4-yl)oxy)-6-methoxyquinazolin-4-amine]
XRPD form change after grinding [1]: No
XRPD form change after tableting [1]: No
Hygroscopicity (in words) (Hygroscopicity by DVS): slightly hygroscopic
Weight change at 80% RH/25° C. by DVS (Hygroscopicity by DVS): 0.8%
TGA weight loss (150° C., %) ([2]; crystalline salts): 1.9%
DSC endotherm (° C., peak) ([2]; crystalline salts): 167.6 °C
DSC endotherm (° C., peak) ([2]; fumarate forms): 167.6 °C
TGA weight loss (%, temp.) ([2]; fumarate forms): 1.9 (to 150° C.) %
Contact angle [6]: 20.3°
Crystal habit of the particles (Crystal habit by PLM): rod-like particles with regular shape
Solubility in H2O [7]: ≥5000 µg/mL
Purity/Initial by HPLC area % [8]: 100.1%
Form Change [8]: No
Purity change by HPLC (chemical stability) compared with amorphous freebase [8]: lower purity change
Solid form change by XRPD (physical stability) [8]: no form change
Solubility in pH 4.5 buffer [4]: ≥8.4 mg/mL

COc1ccc2ncnc(Nc3ccc(Oc4cc5ncnn5cn4)c(C)c3)c2c1O[C@@H]1CCN(C)CC1(F)F [Fumarate Type B, (R)-N-(4-([1,2,4]triazolo[1,5-c]pyrimidin-7-yloxy)-3-methylphenyl)-5-((3,3-difluoro-1-methylpiperidin-4-yl)oxy)-6-methoxyquinazolin-4-amine]
Weight change at 80% RH/25° C. by DVS (Hygroscopicity by DVS): 2.1%
TGA weight loss (150° C., %) ([2]; crystalline salts): 4.9%
TGA weight loss (%, temp.) ([2]; fumarate forms): 4.9 (to 150° C.) %
Contact angle [6]: 29.0°
Solubility in H2O [7]: ≥5200 µg/mL
Purity/Initial by HPLC area % [8]: 99.6%
Form Change [8]: No
Purity change by HPLC (chemical stability) compared with amorphous freebase [8]: lower purity change
Solid form change by XRPD (physical stability) [8]: no form change
Bulk density [9]: 0.36 g/mL
Carr index [9]: 30.4%
Tapped density [9]: 0.52 g/mL
Solubility in pH 6.8 buffer [10]: 0.90 mg/mL
Solubility in FaSSIF ([11]; timepoint 1 h): ≥390 µg/mL
Solubility in FaSSIF ([11]; timepoint 2 h): ≥390 µg/mL
Solubility in FaSSIF ([11]; timepoint 24 h): ≥390 µg/mL
Angle of repose [12]: 26.6°
Solubility in pH 4.5 buffer [4]: 2.3 mg/mL

COc1ccc2ncnc(Nc3ccc(Oc4cc5ncnn5cn4)c(C)c3)c2c1O[C@@H]1CCN(C)CC1(F)F [Fumarate Type C, (R)-N-(4-([1,2,4]triazolo[1,5-c]pyrimidin-7-yloxy)-3-methylphenyl)-5-((3,3-difluoro-1-methylpiperidin-4-yl)oxy)-6-methoxyquinazolin-4-amine]
TGA weight loss (150° C., %) ([2]; crystalline salts): 1.5%
Form conversion at ambient conditions [5]: Form conversion between Fumarate Type C and Fumarate Type B

COc1ccc2ncnc(Nc3ccc(Oc4cc5ncnn5cn4)c(C)c3)c2c1O[C@@H]1CCN(C)CC1(F)F [Fumarate Type E, (R)-N-(4-([1,2,4]triazolo[1,5-c]pyrimidin-7-yloxy)-3-methylphenyl)-5-((3,3-difluoro-1-methylpiperidin-4-yl)oxy)-6-methoxyquinazolin-4-amine]
XRPD form change after grinding [1]: No
XRPD form change after tableting [1]: No
Weight change at 80% RH/25° C. by DVS (Hygroscopicity by DVS): 2.1%
TGA weight loss (150° C., %) ([2]; crystalline salts): 9.4%
TGA weight loss (%, temp.) ([2]; fumarate forms): 9.4 (to 150° C.) %
Solubility in H2O [7]: ≥5000 µg/mL
Bulk density [9]: 0.30 g/mL
Carr index [9]: 41.7%
Tapped density [9]: 0.51 g/mL
Solubility in pH 6.8 buffer [10]: 0.92 mg/mL
Solubility in FaSSIF ([11]; timepoint 1 h): ≥360 µg/mL
Solubility in FaSSIF ([11]; timepoint 2 h): ≥360 µg/mL
Solubility in FaSSIF ([11]; timepoint 24 h): ≥360 µg/mL
Angle of repose [12]: 38.3°
Solubility in pH 4.5 buffer [4]: 1.3 mg/mL

COc1ccc2ncnc(Nc3ccc(Oc4cc5ncnn5cn4)c(C)c3)c2c1O[C@@H]1CCN(C)CC1(F)F [amorphous freebase, (R)-N-(4-([1,2,4]triazolo[1,5-c]pyrimidin-7-yloxy)-3-methylphenyl)-5-((3,3-difluoro-1-methylpiperidin-4-yl)oxy)-6-methoxyquinazolin-4-amine]
Weight change at 80% RH/25° C. by DVS (Hygroscopicity by DVS; listed as Freebase amorphous): 4.2%
Tg, middle temperature ([2]; amorphous free base, starred value in DSC column): 58.7* ° C.
TGA weight loss (%, temp.) ([2]; free base forms): 1.9 (to 150° C.) %
Contact angle ([6]; listed as Freebase amorphous): 37.2°
Crystal habit of the particles (Crystal habit by PLM): irregular-shaped particles without defined boundary
Solubility in H2O [7]: 160 µg/mL (≈ 292 µM)
Form Change [8]: No
Purity/Initial by HPLC area % ([8]; listed as Freebase amorphous): 99.2%
Carr index ([9]; listed as Freebase amorphous): 43.8%
Bulk density ([9]; listed as Freebase amorphous): 0.23 g/mL
Tapped density ([9]; listed as Freebase amorphous): 0.40 g/mL
Solubility in pH 6.8 buffer [10]: 0.15 mg/mL
solubility at 1 h ([11]; FaSSIF, 37 °C, thermodynamic from solid, timepoint 1 h): 280 µg/mL (≈ 510 µM)
solubility at 2 h ([11]; FaSSIF, 37 °C, thermodynamic from solid, timepoint 2 h): 270 µg/mL (≈ 492 µM)
solubility at 24 h ([11]; FaSSIF, 37 °C, thermodynamic from solid, timepoint 24 h): 260 µg/mL (≈ 474 µM)
Angle of repose ([12]; listed as Freebase amorphous): 39.9°
Solubility in pH 4.5 buffer [4]: 0.18 mg/mL
